Measurements taken from EPA's ToxValDB 9.5 (doi:10.2903/j.efsa.2015.4100).
≈ marks a conversion by molar mass, not a printed value.

Legend:
Apis mellifera = details: acute, mortality
Bibionidae = details: chronic/long-term; duration: 28 days; reproduction
Canidae = details: chronic; duration: 52 weeks; oral; Dog Other; organ weight
Daphnia magna = details: chronic/long-term; duration: 21 days; reproduction
Neomysis kadiakensis = details: mortality
Oncorhynchus mykiss = details: acute; duration: 96 hours; mortality
Pimephales promelas = details: chronic/long-term; duration: 32 days; reproduction
Aphidius rhopalosiphi = experiment: LR50; higher = less toxic; details: not reported; mortality
Typhlodromus pyri = experiment: LR50; higher = less toxic; details: not reported; mortality

CNC(=O)C(OC)c1ccccc1COc1cc(C)ccc1C (centres undefined) [Mandestrobin]
LD50 (Apis mellifera; dermal): > 100 µg/piece | LD50 (Apis mellifera; oral, unspecified): > 111 µg/piece | NOEC (Bibionidae): 8.1 mg/L | NOAEL (Canidae): 19 mg/kg-day | LC50 (Colinus virginianus; acute, duration: 8 days, oral, diet, mortality): > 1340 mg/kg-day | LD50 (Colinus virginianus; acute, oral, mortality): > 2250 mg/kg-day | NOEC (Colinus virginianus; reproduction developmental, duration: 21 weeks, reproduction): 91.1 mg/kg-day | NOEC (Daphnia magna): 0.56 mg/L | LC50 (Neomysis kadiakensis; acute, duration: 96 hours): 0.43 µg/mL (≈ 1.37 µM) | NOEC (Neomysis kadiakensis; chronic/long-term, duration: 36 days): 0.0036 mg/L | LC50 (Oncorhynchus mykiss): 0.84 µg/mL (≈ 2.68 µM) | NOEC (Pimephales promelas): 0.15 mg/L | LD50 (Rattus norvegicus; acute, oral, mortality): > 200 mg/kg-day | NOAEL (Rattus norvegicus; reproduction developmental): 163 mg/kg-day | LOAEL (Rattus norvegicus; reproduction developmental, organ weight): 60.2 mg/kg-day | LC50 (Tagia sp.; acute, duration: 14 days, mortality): 84 mg/kg | NOEC (Tagia sp.; chronic/long-term, duration: 56 days): 3.75 mg/kg | LR50 (Aphidius rhopalosiphi): > 1000 g/ha | LR50 (Typhlodromus pyri): > 1000 g/ha
